Data from patent publication US6713265B1 (Synaptic Pharmaceutical Corporation, priority 1999, dated 2004).

What was measured:
[1] = target: T1, α1b (Homo sapiens, UniProt P35368); assay: Binding at cloned human α1b adrenergic receptor
T1 sequence (P35368 1-520): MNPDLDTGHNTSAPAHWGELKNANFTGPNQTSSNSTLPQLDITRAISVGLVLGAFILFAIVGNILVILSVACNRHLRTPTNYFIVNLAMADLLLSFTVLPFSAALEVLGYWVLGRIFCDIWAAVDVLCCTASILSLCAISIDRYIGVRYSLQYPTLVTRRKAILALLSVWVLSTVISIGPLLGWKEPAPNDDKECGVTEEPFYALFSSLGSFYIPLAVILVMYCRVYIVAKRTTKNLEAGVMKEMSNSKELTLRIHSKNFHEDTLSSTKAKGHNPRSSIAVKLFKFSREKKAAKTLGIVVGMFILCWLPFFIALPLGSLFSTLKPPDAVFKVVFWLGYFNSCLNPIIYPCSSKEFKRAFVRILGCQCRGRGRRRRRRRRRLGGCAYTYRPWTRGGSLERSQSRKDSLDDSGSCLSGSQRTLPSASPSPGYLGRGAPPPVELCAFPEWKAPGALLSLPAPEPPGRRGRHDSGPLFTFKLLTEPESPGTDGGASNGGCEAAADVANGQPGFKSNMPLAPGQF

[2] = target: 5HT7 (Homo sapiens, UniProt P34969); assay: Binding at cloned human 5HT7 receptor
[3] = tested on: food intake; assay: Food intake in food-deprived rats; assay type: in vivo, rat; details: 30 mg/kg i.p., after 24h food deprivation
Experimental: After receipt, the animals are individually housed for the duration of the study and allowed free access to normal food together with tap water. The animals are maintained in a room with a 12 h light/dark cycle (8:00 a.m. to 8:00 p.m. light) at 24° C. and monitored humidity. After placement into individual cages the rats undergo a 4 day equilibration period, during which they are habituated to their new environment and to eating a powdered or pellet diet NAFAG, Gossau, Switzerland).
At the end of the equilibration period, food is removed from the animals for 24 hours starting at 8:00 a.m. At the end of the fasting period compound or vehicle may be administered to the animals orally or by injection intraperitoneally or intravenously. After 10-60 min. food is returned to the animals and their food intake is monitored at various time periods during the following 24 hour period. The food intake of animals treated with test compound may be calculated as a percentage of the food intake of control animals (i.e., animals treated with vehicle). Alternatively, food intake for each group of animals subjected to a particular experimental condition may be expressed as the mean±S.E.M.
Measurements were performed two hours after administration of the test compound.

[4] = target: T2, human Y5 receptor (Homo sapiens, UniProt Q15761); assay: Radioligand binding to membranes of cells expressing cloned human Y5 receptor; parameters: Ki Values, Human Y5; apparent Kd; pKd; The isolated clone (CG-19) turned out to contain a full length cDNA; The longest open reading frame encodes a 455 amino acid protein; details: read-out: Binding Affinity Ki vs. ^125I-PYY, Human Receptor Y5; Table 14; stably transfected LM(tk-) cells
T2 sequence (Q15761 1-445): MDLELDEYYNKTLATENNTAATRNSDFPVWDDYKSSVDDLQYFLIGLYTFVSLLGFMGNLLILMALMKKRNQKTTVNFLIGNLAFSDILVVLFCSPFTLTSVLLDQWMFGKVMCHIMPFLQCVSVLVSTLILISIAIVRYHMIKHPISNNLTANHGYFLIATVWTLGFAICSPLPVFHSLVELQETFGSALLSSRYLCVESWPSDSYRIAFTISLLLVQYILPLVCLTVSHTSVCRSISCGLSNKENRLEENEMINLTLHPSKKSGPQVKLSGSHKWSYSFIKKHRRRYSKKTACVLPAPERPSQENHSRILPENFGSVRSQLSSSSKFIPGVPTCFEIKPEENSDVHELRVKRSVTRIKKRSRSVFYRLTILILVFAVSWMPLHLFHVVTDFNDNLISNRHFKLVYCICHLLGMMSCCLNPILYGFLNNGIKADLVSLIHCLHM

[5] = target: T3, human Y1 receptor (Homo sapiens, UniProt P25929); assay: ^125I-PYY binding to membranes, cloned human Y1 receptor; details: read-out: Binding Affinity Ki vs. ^125I-PYY, Human Receptor Y1; Table 14; stably transfected 293 cells (compound 1 also COS-7)
T3 construct: expressed in transfected cells; host or cells: COS-7 (transient)
T3 sequence (P25929 1-384): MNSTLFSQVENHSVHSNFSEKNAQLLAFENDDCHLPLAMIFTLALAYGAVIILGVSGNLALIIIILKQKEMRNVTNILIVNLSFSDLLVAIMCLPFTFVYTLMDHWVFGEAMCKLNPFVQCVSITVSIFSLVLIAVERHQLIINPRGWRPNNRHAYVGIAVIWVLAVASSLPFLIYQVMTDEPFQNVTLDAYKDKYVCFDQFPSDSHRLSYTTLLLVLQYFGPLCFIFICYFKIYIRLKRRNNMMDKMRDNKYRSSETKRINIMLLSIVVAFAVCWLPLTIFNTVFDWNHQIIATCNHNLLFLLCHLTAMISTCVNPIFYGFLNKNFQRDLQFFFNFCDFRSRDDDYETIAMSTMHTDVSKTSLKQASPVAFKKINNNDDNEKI

[6] = target: T4, α2b (Homo sapiens, UniProt P18089); assay: Binding at cloned human α2b adrenergic receptor
T4 sequence (P18089 1-450): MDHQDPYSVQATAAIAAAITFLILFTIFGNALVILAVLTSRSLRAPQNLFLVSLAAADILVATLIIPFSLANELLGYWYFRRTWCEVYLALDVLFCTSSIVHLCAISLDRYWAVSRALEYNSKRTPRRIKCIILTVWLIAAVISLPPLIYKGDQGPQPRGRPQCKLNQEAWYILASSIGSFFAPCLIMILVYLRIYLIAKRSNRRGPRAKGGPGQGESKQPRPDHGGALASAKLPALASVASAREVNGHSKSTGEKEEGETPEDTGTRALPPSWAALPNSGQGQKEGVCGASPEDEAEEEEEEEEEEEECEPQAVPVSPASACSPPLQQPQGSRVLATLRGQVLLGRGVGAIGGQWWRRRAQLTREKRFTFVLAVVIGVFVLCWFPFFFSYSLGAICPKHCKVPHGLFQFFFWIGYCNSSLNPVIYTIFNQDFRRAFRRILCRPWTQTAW

[7] = target: T5, human Y2 receptor (Homo sapiens, UniProt P49146); assay: ^125I-PYY binding to membranes, cloned human Y2 receptor; details: read-out: Binding Affinity Ki vs. ^125I-PYY, Human Receptor Y2; Table 14; stably transfected 293 cells (compound 1 also COS-7)
T5 construct: expressed in transfected cells; host or cells: COS-7 (transient)
T5 sequence (P49146 1-381): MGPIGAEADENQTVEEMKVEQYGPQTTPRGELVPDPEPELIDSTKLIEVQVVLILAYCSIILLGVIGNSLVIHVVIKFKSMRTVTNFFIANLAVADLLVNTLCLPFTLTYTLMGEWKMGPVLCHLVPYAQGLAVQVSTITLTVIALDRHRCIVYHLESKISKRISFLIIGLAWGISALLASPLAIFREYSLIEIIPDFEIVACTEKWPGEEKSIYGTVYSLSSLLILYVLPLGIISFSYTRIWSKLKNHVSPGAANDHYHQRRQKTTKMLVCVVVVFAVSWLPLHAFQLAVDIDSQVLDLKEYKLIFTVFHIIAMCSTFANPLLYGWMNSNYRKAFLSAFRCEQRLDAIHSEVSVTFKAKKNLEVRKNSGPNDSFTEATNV

[8] = target: T6, 5HT2 (Homo sapiens, UniProt P28223); assay: Binding at cloned human 5HT2 receptor
T6 construct: expressed in transfected cells; host or cells: COS-7 (DEAE-dextran); the same paragraph also names the deposited cell line L-NGC-5HT2 (ATCC CRL 10287)
T6 sequence (P28223 whole entry): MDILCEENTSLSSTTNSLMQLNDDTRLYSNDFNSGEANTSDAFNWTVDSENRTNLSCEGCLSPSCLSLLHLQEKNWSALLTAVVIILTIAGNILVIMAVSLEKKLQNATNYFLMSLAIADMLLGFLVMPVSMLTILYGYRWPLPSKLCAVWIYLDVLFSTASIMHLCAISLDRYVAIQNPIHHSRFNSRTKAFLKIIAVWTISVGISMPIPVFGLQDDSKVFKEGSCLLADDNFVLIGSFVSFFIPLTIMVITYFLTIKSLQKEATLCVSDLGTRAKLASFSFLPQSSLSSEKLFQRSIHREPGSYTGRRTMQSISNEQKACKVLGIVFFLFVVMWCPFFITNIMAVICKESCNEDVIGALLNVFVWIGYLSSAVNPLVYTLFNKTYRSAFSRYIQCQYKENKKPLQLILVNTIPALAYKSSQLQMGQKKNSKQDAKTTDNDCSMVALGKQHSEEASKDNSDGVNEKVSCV
Experimental: Human 5HT2 Receptor: The coding sequence of the human 5HT2 receptor was obtained from a human brain cortex cDNA library, and cloned into the cloning site of pcEXV-3 eukaryotic expression vector. […] Nonspecific binding was defined by the addition of 10 μM mianserin.

Sequence of 5HT7 (P34969 1-445 isoform P34969-2): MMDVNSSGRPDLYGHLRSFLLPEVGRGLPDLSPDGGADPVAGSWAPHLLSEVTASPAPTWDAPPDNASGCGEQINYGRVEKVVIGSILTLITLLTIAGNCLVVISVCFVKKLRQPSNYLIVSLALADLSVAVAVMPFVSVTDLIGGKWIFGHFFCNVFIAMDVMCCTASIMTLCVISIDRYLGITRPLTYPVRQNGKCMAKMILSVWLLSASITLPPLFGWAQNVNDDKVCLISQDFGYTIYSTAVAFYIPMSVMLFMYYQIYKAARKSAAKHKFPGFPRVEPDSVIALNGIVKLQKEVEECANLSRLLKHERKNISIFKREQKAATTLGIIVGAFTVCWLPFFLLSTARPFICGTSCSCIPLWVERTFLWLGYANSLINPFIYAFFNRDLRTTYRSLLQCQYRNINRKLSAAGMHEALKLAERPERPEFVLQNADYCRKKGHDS

| Compound | pKi α1b [1] | pKi 5HT7 [2] | Two-hour food intake of food-deprived rats, percentage of intake compared to control rats, Mean [3] | Ki [4] | Ki [5] | pKi α2b [6] | Ki [7] | pKi 5HT2 [8] |
| --- | --- | --- | --- | --- | --- | --- | --- | --- |
| Cl.O=S(=O)(NC[C@H]1CC[C@H](CNCC2CCc3ccccc3C2)CC1)c1cccc2ccccc12 (mixture of isomers) [Compound 19] | 7.35 | 6.42 | 36% | 0.011 µM | 3.55 µM | 6.58 | 0.955 µM | 6.55 |
| Cl.O=[N+]([O-])c1ccccc1S(=O)(=O)NC[C@H]1CC[C@H](CNCC2CCc3ccccc3C2)CC1 (mixture of isomers) [Compound 20] | 7.22 | 6.37 | 35% | 0.0083 µM | 16 µM | 6.96 | 7.76 µM | 5.93 |
| Cl.Cl.Nc1ccccc1S(=O)(=O)NC[C@H]1CC[C@H](CNCC2CCc3ccccc3C2)CC1 (mixture of isomers) [Compound 22] | 6.98 | 6.39 | 55% | 0.011 µM | 17.2 µM | 6.43 | 7.57 µM | 5.99 |
